Measurements: publication PMC4501720 (PLoS ONE, 2015)

Tests used:
[1] = system: whole blood cells of group 3 pigs vaccinated with BCG-pAg85A; type: cell-based, pigs (Sus scrofa domestica)
[2] = system: whole blood cells of group 3 pigs vaccinated with BCG-pAg85A; type: cell-based, pigs (Sus scrofa domestica); remark: listed apart in the source

Row | Substance | IFN-γ levels, BCG / pAg85A animal number 1 [1] | IFN-γ levels, BCG / pAg85A animal number 2 [1] | IFN-γ levels, BCG / pAg85A animal number 3 [1] | IFN-γ levels, BCG / pAg85A animal number 4 [1] | IFN-γ levels, BCG / pAg85A animal number 5 [1] | IFN-γ levels, BCG / pAg85A animal number 6 [1] | group 3 animals recognizing the peptide (significant IFN-γ levels) [1] | animals with positive proliferative response to peptide [2]
1 | 151–170: synthetic overlapping peptide of mature Ag85A, aa 151–170 (GLLDPSQAMGPTLIGLAMGD; UniProt P9WQP3 194-213, looked up, fragment) | 1,020 pg/mL | <5 pg/mL | 257 pg/mL | 71 pg/mL | 349 pg/mL | <5 pg/mL | – | –
2 | 111–130: synthetic overlapping peptide of mature Ag85A, aa 111–130 (ANRHVKPTGSAVVGLSMAAS; UniProt P9WQP3 154-173, looked up, fragment) | 15,124 pg/mL | 2,879 pg/mL | 1,415 pg/mL | 33 pg/mL | 961 pg/mL | <5 pg/mL | – | –
3 | 141–160: synthetic overlapping peptide of mature Ag85A, aa 141–160 (QQFVYAGAMSGLLDPSQAMG; UniProt P9WQP3 184-203, looked up, fragment) | 9,718 pg/mL | 232 pg/mL | 1,330 pg/mL | 894 pg/mL | 3,006 pg/mL | 837 pg/mL | – | –
4 | 171–190: synthetic overlapping peptide of mature Ag85A, aa 171–190 (AGGYKASDMWGPKEDPAWQR; UniProt P9WQP3 214-233, looked up, fragment) | 328 pg/mL | <5 pg/mL | 1,066 pg/mL | 22 pg/mL | 170 pg/mL | <5 pg/mL | – | –
5 | 61–80: synthetic overlapping peptide of mature Ag85A, aa 61–80 (YDQSGLSVVMPVGGQSSFYS; UniProt P9WQP3 104-123, looked up, fragment) | 8,179 pg/mL | 354 pg/mL | 579 pg/mL | 75 pg/mL | 3,611 pg/mL | 444 pg/mL | – | –
6 | 131–150: synthetic overlapping peptide of mature Ag85A, aa 131–150 (SALTLAIYHPQQFVYAGAMS; UniProt P9WQP3 174-193, looked up, fragment) | 11,114 pg/mL | 1,754 pg/mL | 5,306 pg/mL | 868 pg/mL | 11,072 pg/mL | 4,687 pg/mL | 6/6 and all six | 5/6
7 | 251–270: synthetic overlapping peptide of mature Ag85A, aa 251–270 (NGVFDFPDSGTHSWEYWGAQ; UniProt P9WQP3 294-313, looked up, fragment) | 410 pg/mL | 317 pg/mL | <5 pg/mL | 11 pg/mL | 161 pg/mL | 163 pg/mL | – | –
8 | 35–53: synthetic overlapping peptide of mature Ag85A, aa 35–53 (ALYLLDGLRAQDDFSGWDI; UniProt P9WQP3 78-96, looked up, fragment) | 4,594 pg/mL | 438 pg/mL | 74 pg/mL | <5 pg/mL | 2,105 pg/mL | <5 pg/mL | – | –
9 | 181–200: synthetic overlapping peptide of mature Ag85A, aa 181–200 (GPKEDPAWQRNDPLLNVGKL; UniProt P9WQP3 224-243, looked up, fragment) | 33 pg/mL | <5 pg/mL | 8 pg/mL | 17 pg/mL | <5 pg/mL | <5 pg/mL | – | –
10 | 1–20: synthetic overlapping peptide of mature Ag85A, aa 1–20 (FSRPGLPVEYLQVPSPSMGR; UniProt P9WQP3 44-63, looked up, fragment) | <5 pg/mL | 305 pg/mL | <5 pg/mL | <5 pg/mL | 84 pg/mL | 13,875 pg/mL | – | –
11 | 191–210: synthetic overlapping peptide of mature Ag85A, aa 191–210 (NDPLLNVGKLIANNTRVWVY; UniProt P9WQP3 234-253, looked up, fragment) | 266 pg/mL | <5 pg/mL | 156 pg/mL | 38 pg/mL | 560 pg/mL | <5 pg/mL | – | –
12 | 101–120: synthetic overlapping peptide of mature Ag85A, aa 101–120 (LTSELPGWLQANRHVKPTGS; UniProt P9WQP3 144-163, looked up, fragment) | 150 pg/mL | 1,646 pg/mL | 1,177 pg/mL | <5 pg/mL | 319 pg/mL | <5 pg/mL | – | –
13 | 81–100: synthetic overlapping peptide of mature Ag85A, aa 81–100 (DWYQPACGKAGCQTYKWETF; UniProt P9WQP3 124-143, looked up, fragment) | 1,900 pg/mL | 56 pg/mL | 2,968 pg/mL | 170 pg/mL | 1,547 pg/mL | <5 pg/mL | – | –
